# Results from US8178708B2, “Lipid derivatives” (Pronova Biopharma Norge AS, priority 2006, dated 2012).
# Experiments:
# [1] = biological target: T1, ligand binding domain of human PPARα (Homo sapiens, UniProt Q07869); assay: GAL4-hPPARα LBD luciferase reporter, transient transfection in COS-1 cells; details: for Luciferase activation (fold activation) hPPARα: 10 μM, GAL4-hPPARα LBD chimera in COS-1 cells, negative control = 1.00; for PPAR selectivity profile (in words): conclusion from table 1, 10 μM
# T1 sequence (Q07869 239-466 limits assumed): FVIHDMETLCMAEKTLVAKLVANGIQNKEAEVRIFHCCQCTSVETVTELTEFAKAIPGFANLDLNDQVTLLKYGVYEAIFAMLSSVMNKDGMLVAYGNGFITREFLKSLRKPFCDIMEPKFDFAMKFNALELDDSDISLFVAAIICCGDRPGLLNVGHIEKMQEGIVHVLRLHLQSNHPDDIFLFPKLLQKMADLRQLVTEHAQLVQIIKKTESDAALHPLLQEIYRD
# [2] = biological target: T2, ligand binding domain of human PPARδ (Homo sapiens, UniProt Q03181); assay: GAL4-hPPARδ LBD luciferase reporter, transient transfection in COS-1 cells; details: 10 μM; GAL4-hPPARδ LBD chimera in COS-1 cells; negative control = 1.00
# T2 sequence (Q03181 211-439 limits assumed): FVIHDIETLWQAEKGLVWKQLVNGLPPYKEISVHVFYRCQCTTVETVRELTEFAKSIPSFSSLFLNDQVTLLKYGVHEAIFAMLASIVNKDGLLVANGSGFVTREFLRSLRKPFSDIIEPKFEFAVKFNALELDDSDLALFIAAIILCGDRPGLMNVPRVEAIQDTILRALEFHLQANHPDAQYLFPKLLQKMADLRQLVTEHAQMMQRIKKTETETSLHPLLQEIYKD
# [3] = biological target: T3, ligand binding domain of human PPARγ (Homo sapiens, UniProt P37231); assay: GAL4-hPPARγ LBD luciferase reporter, transient transfection in COS-1 cells; details: 10 μM; GAL4-hPPARγ LBD chimera in COS-1 cells; negative control = 1.00
# T3 sequence (P37231 238-503 limits assumed): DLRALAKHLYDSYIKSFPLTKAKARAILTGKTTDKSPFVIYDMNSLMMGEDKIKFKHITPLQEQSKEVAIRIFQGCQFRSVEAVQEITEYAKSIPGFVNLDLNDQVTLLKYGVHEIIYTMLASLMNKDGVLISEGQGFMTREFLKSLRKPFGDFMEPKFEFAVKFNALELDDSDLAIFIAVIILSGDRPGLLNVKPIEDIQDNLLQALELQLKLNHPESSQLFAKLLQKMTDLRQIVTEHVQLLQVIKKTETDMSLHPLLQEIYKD
# [4] = biological target: T4, ligand binding domain of human RXRα (Homo sapiens, UniProt P19793); assay: GAL4-hRXRα LBD luciferase reporter, transient transfection in COS-1 cells; details: for Luciferase activation (fold activation) hRXRα: 10 μM, GAL4-hRXRα LBD chimera in COS-1 cells, negative control = 1.00
# T4 sequence (P19793 227-458 limits assumed): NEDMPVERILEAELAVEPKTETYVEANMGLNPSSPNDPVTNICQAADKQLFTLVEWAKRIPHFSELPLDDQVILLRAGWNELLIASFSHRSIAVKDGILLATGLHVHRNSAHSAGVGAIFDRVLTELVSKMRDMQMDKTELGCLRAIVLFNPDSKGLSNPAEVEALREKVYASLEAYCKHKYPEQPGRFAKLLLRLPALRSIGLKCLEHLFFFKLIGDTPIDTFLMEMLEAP
# NF-κB = assay: Inhibition of NF-κB in human monocytic cell lines (U937-3xkB-LUC luciferase assay); format: cell-based; details: U937-3xkB-LUC cells, NF-κB induced by LPS or human TNF-α; FIG. 1
# Procedure: The novel compounds and DHA were solubilized to 12.5 μM in DMSO flushed with argon and stored at −20° C. Dexamethasone 10 μM in DMSO was used as positive control.
# U937-3xkB-LUC cells, (Carlsen, J. Immun, 2002), were cultured in RPMI-1640 medium with L-glutamine ([…]), penicillin (50 U/ml), streptomycin ([…]), hygromycin (75 ug/ml), 10% Fetal Bovine Serum at 37° C. and 5% CO2. In the Cells were seeded in 24-well plates wherein 1% Fetal Bovin Serum was added to the medium. NF-κB activity was induced by lipopolysaccharide (LPS) (1 ug/ml) or human TNF-α (10 ng/ml). Cell viability was measured by trypan blue staining.
# Luciferase activity was measured by imaging with a IVIS Imaging System from Xenogen Corp., USA. The Luminescence was detected after 1 min. and 5 min after addition of 0.2 mg d-luciferin per. ml cell medium. Number of photons in each well pr. second was calculated using Living Image Software (Xenogen Corp., USA).
Luciferase activation (fold activation) hPPARα [1] [fold activation],PPAR selectivity profile (in words) [1],Luciferase activation (fold activation) hPPARδ [2] [fold activation],Luciferase activation (fold activation) hPPARγ [3] [fold activation],Luciferase activation (fold activation) hRXRα [4] [fold activation],"RXRα ligand activity (in words) ([4]; conclusion from table 1, 10 μM)",SMILES,Inhibition of the NF-κB pathway (in words) (NF-κB)
4.51 ± 0.52,selective PPARα modulators/activators,1.28 ± 0.08,1.56 ± 0.12,0.90 ± 0.08,–,"CC/C=C\C/C=C\C/C=C\C/C=C\C/C=C\CCC/C(C)=C/C(=O)O [Compound 4, (2E,7Z,10Z,13Z,16Z,19Z)-3-methyl-docosa-2,7,10,13,16,19-hexaenoic acid]",–
2.27 ± 0.04,–,–,–,–,–,"Cc1cccc(Nc2cc(Cl)nc(SCC(=O)O)n2)c1C [Wy14643, reference compound]",–
8.27 ± 0.81,PPAR pan modulators/activators,1.47 ± 0.38,4.32 ± 0.29,1.57 ± 0.08,RXRα ligand,"CC/C=C\C/C=C\C/C=C\C/C=C\CC/C=C/C=C/C(C)=C/C(=O)O [Compound 25, (2E,4E,6E,10Z,13Z,16Z,19Z)-3-methyl-docosa-2,4,6,10,13,16,19-heptaenoic acid]",potent inhibitors of the NF-κB pathway
4.89 ± 0.31,selective PPARα modulators/activators,1.11 ± 0.16,1.63 ± 0.06,0.81 ± 0.05,–,"CC/C=C\C/C=C\C/C=C\C/C=C\CC/C=C/C=C/C(=O)O [Compound 13, (2E,4E,8Z,11Z,14Z,17Z)-icosa-2,4,8,11,14,17-hexaenoic acid]",potent inhibitors of the NF-κB pathway
6.79 ± 0.21,selective PPARα modulators/activators,1.17 ± 00.20,1.67 ± 0.11,0.84 ± 0.09,–,"CC/C=C\C/C=C\C/C=C\C/C=C\CC/C=C/C=C(\C)C(=O)O [Compound 11, (2E,4E,8Z,11Z,14Z,17Z)-2-methyl-icosa-2,4,8,11,14,17-hexaenoic acid]",–
